Data taken from patent US9216981B2, “Purinylpyridinylamino-2,4-difluorophenyl sulfonamide derivative, pharmaceutically acceptable salt thereof, preparation method thereof, and pharmaceutical composition with inhibitory activity against Raf kinase, containing same as active ingredient” (Medpacto, Inc., priority 2010, dated 2015).

Experiments:
[1] = tested on: A375P cell line; experiment: B-Raf cell activity inhibition (A375P growth inhibition, MTT assay); format: cell-based; settings: A375P human melanoma, V600E mutant of B-Raf, 72 hours
Description: To check the B-Raf cell activity inhibitory capability of the compounds of the present invention, the following experiments were conducted in A375P cell line (ATCC). […] A375 cell was maintained in DMEM supplemented with 10% fetal bovine serum, glutamine (2 mM), penicillin (100 U/mL), and streptomycin (100 μg/mL). The cell was maintained at 37° C., and in 5% CO2 and 100% humidity. To conduct the growth inhibition test, the cell was plated by using a white 384-well microplate, with 1000 cells/20 μl plated per 1 well. After 24 hours, 5 μl of 5× stock solution of drug was added. All the drugs were initially prepared with 200× stock solution in DMSO, and the final concentration of DMSO was 0.5%. The cell was incubated at 37° C. for 72 hours. For MTT assay, ‘CellTiter 96 (R) Non-Radioactive Cell Proliferation Assay (G4100)’ kit by Promega Corp. was used. 15 μl of dye solution of the Promega kit was put into each well and was cultured in the incubator for 4 hours. And 100 μl of each Solubilization/Stop Solution substance of the kit was added and fixed in the incubator for 24 hours again. And then, absorbance was measured by using a 96-well plate reader with 570 nm of absorbance.

[2] = target: B-Raf (Homo sapiens (Human), UniProt P15056); experiment: B-Raf kinase activity (B-Raf/MEK1/MAPK2 cascade, MBP phosphorylation, [γ-32P]ATP); format: biochemical; settings: activated B-Raf, inactivated MEK1, inactivated MAPK2, 30° C., 30 minutes, read-out: B-Raf Enzyme Activity
Description: To check the B-Raf kinase inhibitory activity of the compounds of the present invention, the following experiments were conducted.
20 μl of diluting solvent (20 mM MOPS, pH 7.2, 25 mM β-glycerol phosphate, 5 mM EGTA, 1 mM sodium orthovanadate, 1 mM dithiothreitol) and 10 μl of Mg/ATP mixed solution (500 μM ATP, 75 mM magnesium chloride) were added into a centrifuge tube, the derivative compound of Formula 1 was added or the compounds of the Examples were not added as a control group, and then 1 ng of activated B-Raf, 0.4 ng of inactivated MEK1, and 1 μg of inactivated MAPK2 were added. The solutions in the tube were collected on the bottom via centrifugation and were reacted at 30° C. for 30 minutes. After taking 4 μl of the mixed solution, the test proceeded to the next step.
(2) Phosphorylation of Matrix Protein MBP by MAPK2
10 μl of diluting solvent, 20 μg of MBP used as a matrix, and 10 μl of diluted [γ-32P]ATP (1 μCi/μL) were added into the 4 μl of the mixed solution obtained from (1). The solutions in the tube were collected on the bottom via centrifugation and were reacted at 30° C. for 30 minutes. And 25 μl of the reacted solution was put carefully on the center of a filter paper (2 cm×2 cm P81) for 30 seconds. Afterwards, the filter paper was cleaned with 0.75% phosphoric acid for 10 minutes three times and with acetone for 5 minutes one time. The filter paper was then moved to a scintillation vial and 5 ml of scintillation cocktail was added thereto. The inhibition rate (IC50) over B-Raf activity was measured by reading radioactivity through a scintillation counter while comparing to the control group.

Sequence of B-Raf (P15056 whole entry): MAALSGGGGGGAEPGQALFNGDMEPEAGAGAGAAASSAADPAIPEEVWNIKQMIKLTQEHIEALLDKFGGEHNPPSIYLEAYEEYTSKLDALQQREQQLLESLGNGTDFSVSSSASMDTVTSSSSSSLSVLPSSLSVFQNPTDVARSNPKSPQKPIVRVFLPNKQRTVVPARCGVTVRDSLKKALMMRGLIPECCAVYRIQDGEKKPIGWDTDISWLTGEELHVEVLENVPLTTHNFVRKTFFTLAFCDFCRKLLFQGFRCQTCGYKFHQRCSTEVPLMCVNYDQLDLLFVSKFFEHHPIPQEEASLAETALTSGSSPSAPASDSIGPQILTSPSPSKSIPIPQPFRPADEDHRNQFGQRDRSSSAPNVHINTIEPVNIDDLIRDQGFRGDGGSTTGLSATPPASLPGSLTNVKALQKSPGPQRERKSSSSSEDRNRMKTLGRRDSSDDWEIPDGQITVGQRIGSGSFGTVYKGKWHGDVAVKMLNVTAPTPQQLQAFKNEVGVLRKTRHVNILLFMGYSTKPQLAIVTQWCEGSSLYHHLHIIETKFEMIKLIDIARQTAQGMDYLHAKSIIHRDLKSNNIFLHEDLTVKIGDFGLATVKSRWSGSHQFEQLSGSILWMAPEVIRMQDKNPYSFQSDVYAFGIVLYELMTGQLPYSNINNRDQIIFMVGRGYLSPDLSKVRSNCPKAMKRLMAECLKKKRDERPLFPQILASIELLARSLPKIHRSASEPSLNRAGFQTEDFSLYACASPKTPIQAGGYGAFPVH

IC50 [1] [nM]	IC50 [2] [nM]	SMILES
230	8.8	O=S(=O)(Nc1ccc(F)c(Nc2ncccc2-c2ncnc3[nH]cnc23)c1F)c1cccc(C(F)(F)F)c1 [Example 2, N-(3-(3-(9H-purin-6-yl)pyridin-2-ylamino)-2,4-difluorophenyl)-3-(trifluoromethyl)benzenesulfonamide]
5200	30	O=S(=O)(Nc1ccc(F)c(Nc2ncccc2-c2ncnc3[nH]cnc23)c1F)c1ccc(C(F)(F)F)cc1 [Example 3, N-(3-(3-(9H-purin-6-yl)pyridin-2-ylamino)-2,4-difluorophenyl)-4-(trifluoromethyl)benzenesulfonamide]
2800	720	O=S(=O)(Nc1ccc(F)c(Nc2ncccc2-c2ncnc3[nH]cnc23)c1F)c1ccc(Cl)c(Cl)c1 [Example 6, N-(3-(3-(9H-purin-6-yl)pyridin-2-ylamino)-2,4-difluorophenyl)-3,4-dichlorobenzenesulfonamide]
4300	832	O=S(=O)(Nc1ccc(F)c(Nc2ncccc2-c2ncnc3[nH]cnc23)c1F)c1cc2ccccc2o1 [Example 7, N-(3-(3-(9H-purin-6-yl)pyridin-2-ylamino)-2,4-difluorophenyl)benzofuran-2-sulfonamide]
–	1500	O=[N+]([O-])c1ccccc1CS(=O)(=O)Nc1ccc(F)c(Nc2ncccc2-c2ncnc3[nH]cnc23)c1F [Example 9, N-(3-(3-(9H-purin-6-yl)pyridin-2-ylamino)-2,4-difluorophenyl)-1-(2-nitrophenyl)methansulfonamide]
10200	1200	COc1ccc(S(=O)(=O)Nc2ccc(F)c(Nc3ncccc3-c3ncnc4[nH]cnc34)c2F)cc1OC [Example 10, N-(3-(3-(9H-purin-6-yl)pyridin-2-ylamino)-2,4-difluorophenyl)-3,4-dimethoxybenzenesulfonamide]
600	610	O=S(=O)(Nc1ccc(F)c(Nc2ncccc2-c2ncnc3[nH]cnc23)c1F)c1ccc(OC(F)(F)F)cc1 [Example 12, N-(3-(3-(9H-purin-6-yl)pyridin-2-ylamino)-2,4-difluorophenyl)-4-(trifluoromethoxy)benzenesulfonamide]
150	420	O=S(=O)(Nc1ccc(F)c(Nc2ncccc2-c2ncnc3[nH]cnc23)c1F)c1ccc(F)cc1C(F)(F)F [Example 13, N-(3-(3-(9H-purin-6-yl)pyridin-2-ylamino)-2,4-difluorophenyl)-4-fluoro-2-(trifluoromethyl)benzenesulfonamide]
6	2	Cc1c(Cl)cccc1S(=O)(=O)Nc1ccc(F)c(Nc2ncccc2-c2ncnc3[nH]cnc23)c1F [Example 14, N-(3-(3-(9H-purin-6-yl)pyridin-2-ylamino)-2,4-difluorophenyl)-3-chloro-2-methyl benzenesulfonamide]
11000	1	O=S(=O)(Nc1ccc(F)c(Nc2ncccc2-c2ncnc3[nH]cnc23)c1F)c1ccco1 [Example 15, N-(3-(3-(9H-purin-6-yl)pyridin-2-ylamino)-2,4-difluorophenyl)furan-2-sulfonamide]
9600	1500	COC(=O)c1sccc1S(=O)(=O)Nc1ccc(F)c(Nc2ncccc2-c2ncnc3[nH]cnc23)c1F [Example 16, Methyl-3-(N-(3-(3-(9H-purin-6-yl)pyridin-2-ylamino)-2,4-difluorophenyl)sulfamoyl)thiophene-2-carboxylate]
40	7	O=S(=O)(Nc1ccc(F)c(Nc2ncccc2-c2ncnc3[nH]cnc23)c1F)c1ccsc1 [Example 17, N-(3-(3-(9H-purin-6-yl)pyridin-2-ylamino)-2,4-difluorophenyl)thiophene-3-sulfonamide]
2	1	O=S(=O)(Nc1ccc(F)c(Nc2ncccc2-c2ncnc3[nH]cnc23)c1F)c1ccoc1 [Example 18, N-(3-(3-(9H-purin-6-yl)pyridin-2-ylamino)-2,4-difluorophenyl)furan-3-sulfonamide]
250	50	O=S(=O)(Nc1ccc(F)c(Nc2ncccc2-c2ncnc3[nH]cnc23)c1F)C1CC1 [Example 19, N-(3-(3-(9H-purin-6-yl)pyridin-2-ylamino)-2,4-difluorophenyl)cyclopropansulfonamide]
700	160	Cc1nc(C)c(S(=O)(=O)Nc2ccc(F)c(Nc3ncccc3-c3ncnc4[nH]cnc34)c2F)s1 [Example 20, N-(3-(3-(9H-purin-6-yl)pyridin-2-ylamino)-2,4-difluorophenyl)-2,4-dimethylthiazole-5-sulfonamide]
1000	1800	Cn1cnc(S(=O)(=O)Nc2ccc(F)c(Nc3ncccc3-c3ncnc4[nH]cnc34)c2F)c1 [Example 22, N-(3-(3-(9H-purin-6-yl)pyridin-2-ylamino)-2,4-difluorophenyl)-1-methyl-1-imidazole-4-sulfonamide]
60	15	Cc1ccc(S(=O)(=O)Nc2ccc(F)c(Nc3ncccc3-c3ncnc4[nH]cnc34)c2F)o1 [Example 23, N-(3-(3-(9H-purin-6-yl)pyridin-2-ylamino)-2,4-difluorophenyl)-5-methylfuran-2-sulfonamide]
100	15	Cc1cc(S(=O)(=O)Nc2ccc(F)c(Nc3ncccc3-c3ncnc4[nH]cnc34)c2F)c(C)o1 [Example 25, N-(3-(3-(9H-purin-6-yl)pyridin-2-ylamino)-2,4-difluorophenyl)-2,5-dimethylfuran-3-sulfonamide]
330	30	Cc1cc(S(=O)(=O)Nc2ccc(F)c(Nc3ncccc3-c3ncnc4[nH]cnc34)c2F)c(C(F)(F)F)o1 [Example 26, N-(3-(3-(9H-purin-6-yl)pyridin-2-ylamino)-2,4-difluorophenyl)-5-methyl-2-(trifluoromethyl)furan-3-sulfonamide]
760	80	Cc1cccc(Cl)c1S(=O)(=O)Nc1ccc(F)c(Nc2ncccc2-c2ncnc3[nH]cnc23)c1F [Example 27, N-(3-(3-(9H-purin-6-yl)pyridin-2-ylamino)-2,4-difluorophenyl)-2-chloro-6-methylbenzenesulfonamide]
200	–	O=S(=O)(Nc1ccc(F)c(Nc2ncccc2-c2ncnc3[nH]cnc23)c1F)c1ccc(Cl)s1 [Example 44]

SMILES	IC50 [1] [nM]	IC50 [2] [nM]
CC(C)S(=O)(=O)Nc1ccc(F)c(Nc2ncccc2-c2ncnc3[nH]cnc23)c1F [Example 1, N-(3-(3-(9H-purin-6-yl)pyridin-2-ylamino)-2,4-difluorophenyl)propane-2-sulfonamide]	120	17
O=S(=O)(Nc1ccc(F)c(Nc2ncccc2-c2ncnc3[nH]cnc23)c1F)c1cccs1 [Example 4, N-(3-(3-(9H-purin-6-yl)pyridin-2-ylamino)-2,4-difluorophenyl)thiophene-2-sulfonamide]	30	12
CCCS(=O)(=O)Nc1ccc(F)c(Nc2ncccc2-c2ncnc3[nH]cnc23)c1F [Example 5, N-(3-(3-(9H-purin-6-yl)pyridin-2-ylamino)-2,4-difluorophenyl)propan-1-sulfonamide]	310	23
O=S(=O)(Nc1ccc(F)c(Nc2ncccc2-c2ncnc3[nH]cnc23)c1F)c1ccc(Cl)cc1F [Example 8, N-(3-(3-(9H-purin-6-yl)pyridin-2-ylamino)-2,4-difluorophenyl)-4-chloro-2-fluorobenzenesulfonamide]	700	33.7
O=S(=O)(Nc1ccc(F)c(Nc2ncccc2-c2ncnc3[nH]cnc23)c1F)C1CCCCC1 [Example 11, N-(3-(3-(9H-purin-6-yl)pyridin-2-ylamino)-2,4-difluorophenyl)cyclohexanesulfonamide]	340	206
O=S(=O)(Nc1ccc(F)c(Nc2ncccc2-c2ncnc3[nH]cnc23)c1F)N1CCOCC1 [Example 21, N-(3-(3-(9H-purin-6-yl)pyridin-2-ylamino)-2,4-difluorophenyl)morpholine-4-sulfonamide]	360	1300
